≈ marks a conversion by molar mass, not a printed value.

By MIC is commonly meant the least concentration at which growth counts as inhibited. As usually defined, the half-life is the time needed for the level to fall by half in the phase considered.

Data set [1] concerns Saccharomyces cerevisiae. As to the kind of experiment: Antifungal activity against recombinant Saccharomyces cerevisiae Y2721 overexpressing CpErg11 CpCpr assessed as inhibition of fungal growth incubated for 48 hrs by microbroth dilution method. In kind it is functional. Background: Dilution methods test growth across graded concentrations, often in twofold steps.
Data set [2] concerns Saccharomyces cerevisiae. Description: Resistance index, ratio of MIC for recombinant Saccharomyces cerevisiae Y525 overexpressing CaMdr1 to MIC for recombinant Saccharomyces cerevisiae Y2411 overexpressing ScErg11. In kind it is functional.
In data set [3] the test system is Saccharomyces cerevisiae. As to the kind of experiment: Antifungal activity against recombinant Saccharomyces cerevisiae Y2411 overexpressing ScErg11 assessed as inhibition of fungal growth incubated for 48 hrs by microbroth dilution method. In kind it is functional.
Data set [4] deals with Saccharomyces cerevisiae. Description: Antifungal activity against recombinant Saccharomyces cerevisiae Y525 overexpressing CaMdr1 assessed as inhibition of fungal growth incubated for 48 hrs by microbroth dilution method. It is filed as functional.
Data set [5] relates to Saccharomyces cerevisiae. As to the kind of experiment: Antifungal activity against recombinant Saccharomyces cerevisiae Y2462 overexpressing ScErg11 ScNcp1 assessed as inhibition of fungal growth incubated for 48 hrs by microbroth dilution method. In kind it is functional.
The subject of data set [6] is Saccharomyces cerevisiae. As to the kind of experiment: Antifungal activity against recombinant Saccharomyces cerevisiae Y2513 overexpressing ScErg11 Y140H assessed as inhibition of fungal growth incubated for 48 hrs by microbroth dilution method. It is filed as functional.
For data set [7], the system named is Saccharomyces cerevisiae. As to the kind of experiment: Antifungal activity against recombinant Saccharomyces cerevisiae Y2459 overexpressing CaErg11 CaCpr assessed as inhibition of fungal growth incubated for 48 hrs by microbroth dilution method. It is filed as functional.
Data set [8] relates to Saccharomyces cerevisiae. As to the kind of experiment: Antifungal activity against recombinant Saccharomyces cerevisiae Y570 overexpressing CaCdr1 assessed as inhibition of fungal growth incubated for 48 hrs by microbroth dilution method. It is filed as functional.
The subject of data set [9] is Saccharomyces cerevisiae. Description: Antifungal activity against recombinant Saccharomyces cerevisiae Y2716 overexpressing CpErg11 Y132F CpCpr assessed as inhibition of fungal growth incubated for 48 hrs by microbroth dilution method. In kind it is functional.
Data set [10] relates to Saccharomyces cerevisiae. As to the kind of experiment: Antifungal activity against recombinant Saccharomyces cerevisiae Y2300 overexpressing ScErg11 assessed as inhibition of fungal growth incubated for 48 hrs by microbroth dilution method. It is filed as functional.
In data set [11] the test system is Saccharomyces cerevisiae. As to the kind of experiment: Antifungal activity against recombinant Saccharomyces cerevisiae Y2374 overexpressing CgErg11 assessed as inhibition of fungal growth incubated for 48 hrs by microbroth dilution method. In kind it is functional.
The test system of data set [12] is Saccharomyces cerevisiae. As to the kind of experiment: Antifungal activity against recombinant Saccharomyces cerevisiae Y2301 overexpressing ScErg11 Y140F assessed as inhibition of fungal growth incubated for 48 hrs by microbroth dilution method. In kind it is functional.
Data set [13] can be described thus: Metabolic stability in human liver microsomes assessed as half life at 1 uM preincubated for 10 mins followed by NADPH addition and measured upto 60 mins by LC-MS/MS analysis. It is filed as ADME, Microsome. The following applies: time < 70 min. On the technique in general: Liver microsomes are vesicles of endoplasmic reticulum, rich in cytochrome P450 enzymes.

A short description of data set [14]: Metabolic stability in human liver microsomes assessed as intrinsic clearance at 1 uM preincubated for 10 mins followed by NADPH addition and measured upto 60 mins by LC-MS/MS analysis. In kind it is ADME, Microsome. As to conditions: time < 70 min, read-out: CLH.
Data set [15] deals with [Candida] auris. As to the kind of experiment: Antifungal activity against fluconazole-resistant Candida auris 919 assessed as inhibition of fungal growth incubated for 48 hrs by microbroth dilution method. In kind it is functional. The following applies: Candidozyma auris.
Data set [16] concerns Candida albicans. As to the kind of experiment: Antifungal activity against Candida albicans 10231 assessed as inhibition of fungal growth incubated for 48 hrs by microbroth dilution method. It is filed as functional.
In data set [17] the test system is Candida albicans. As to the kind of experiment: Antifungal activity against fluconazole-resistant Candida albicans 901 assessed as inhibition of fungal growth incubated for 48 hrs by microbroth dilution method. It is filed as functional.
Data set [18] concerns Nakaseomyces glabratus. As to the kind of experiment: Antifungal activity against Candida glabrata 537 assessed as inhibition of fungal growth incubated for 48 hrs by microbroth dilution method. In kind it is functional.
Data set [19] relates to Candida albicans. As to the kind of experiment: Antifungal activity against Candida albicans SC5314 assessed as inhibition of fungal growth incubated for 48 hrs by microbroth dilution method. It is filed as functional.
Data set [20] relates to [Candida] auris. Description: Antifungal activity against fluconazole-resistant Candida auris 918 assessed as inhibition of fungal growth incubated for 48 hrs by microbroth dilution method. It is filed as functional. As to conditions: Candidozyma auris.
Data set [21] concerns Candida albicans. Description: Antifungal activity against fluconazole-resistant Candida albicans 904 assessed as inhibition of fungal growth incubated for 48 hrs by microbroth dilution method. In kind it is functional.
Another data set concerns Cryptococcus neoformans. Description: Antifungal activity against Cryptococcus neoformans 32,609 assessed as inhibition of fungal growth incubated for 72 hrs by microbroth dilution method. It is filed as functional.
Data set [22] deals with [Candida] auris. As to the kind of experiment: Antifungal activity against fluconazole-resistant Candida auris 891 assessed as inhibition of fungal growth incubated for 48 hrs by microbroth dilution method. It is filed as functional. The following applies: Candidozyma auris.
The subject of another data set is Pichia kudriavzevii. As to the kind of experiment: Antifungal activity against Candida krusei 4996 assessed as inhibition of fungal growth incubated for 48 hrs by microbroth dilution method. In kind it is functional.
In a further data set the test system is Aspergillus fumigatus. As to the kind of experiment: Antifungal activity against Aspergillus fumigatus 7544 assessed as inhibition of fungal growth incubated for 72 hrs by microbroth dilution method. It is filed as functional.
For the next data set, the system named is Candida parapsilosis. As to the kind of experiment: Antifungal activity against Candida parapsilosis 22019 assessed as inhibition of fungal growth incubated for 48 hrs by microbroth dilution method. In kind it is functional. The following applies: Lodderomyces parapsilosis.
The test system of the next data set is Candida tropicalis. Description: Antifungal activity against Candida tropicalis 8915 assessed as inhibition of fungal growth incubated for 48 hrs by microbroth dilution method. In kind it is functional.
In data set [23] the test system is Nakaseomyces glabratus. Description: Potency index, ratio of fluconazole MIC to test compound MIC for antifungal activity against Candida glabrata 537 assessed as inhibition of fungal growth incubated for 48 hrs by microbroth dilution method. In kind it is functional.

On to `C[C@@H](c1ncncc1F)[C@](O)(Cn1cncn1)c1ccc(F)cc1F` [VORICONAZOLE], for which the MIC is 0.063 µg/mL with Saccharomyces cerevisiae [1]; 0.008 µg/mL with Saccharomyces cerevisiae [3]; 0.5 µg/mL in the data set on Saccharomyces cerevisiae [4]; 0.063 µg/mL in the data set with Saccharomyces cerevisiae [5]; 0.031 µg/mL in the data set with Saccharomyces cerevisiae [6]; 0.016 µg/mL in the data set with Saccharomyces cerevisiae [7]. Also, the MIC with Saccharomyces cerevisiae [8] came to 8 µg/mL; in the data set with Saccharomyces cerevisiae [9], 0.25 µg/mL; with Saccharomyces cerevisiae [10], 0.031 µg/mL; with Saccharomyces cerevisiae [11], 0.031 µg/mL; in the data set with Saccharomyces cerevisiae [12], 0.031 µg/mL. For the same compound, the Ratio in the data set with Saccharomyces cerevisiae [2] is given as 64.
On to `Cc1ncc2n1-c1ccc(Cl)cc1C(c1ccccc1F)=NC2` [MIDAZOLAM], for which the half-life at 1 µM in [13] came out at 4.67 min. Also, the microsomal CLint at 1 µM in data set [14] was determined as 297 µL/min/mg.
As to `C[C@@H](c1nc(-c2ccc(C#N)cc2)cs1)[C@](O)(Cn1cncn1)c1ccc(F)cc1F` [RAVUCONAZOLE], the MIC in [Candida] auris [15] is 1 µg/mL (≈ 2.29 µM); in the data set with Candida albicans [16], 16 µg/mL (≈ 36.6 µM); in the data set on Candida albicans [17] it was 16 µg/mL (≈ 36.6 µM); with Saccharomyces cerevisiae [1] it was 0.031 µg/mL; in the data set on Nakaseomyces glabratus [18], no more than 0.125 µg/mL; with Saccharomyces cerevisiae [3], 0.008 µg/mL. For the same compound, the MIC with Candida albicans [19] was 0.25 µg/mL (≈ 0.571 µM); in the data set with Saccharomyces cerevisiae [4] it was 0.125 µg/mL; in data set [Candida] auris [20], 1 µg/mL (≈ 2.29 µM); in the data set on Saccharomyces cerevisiae [5], 0.063 µg/mL; in the data set on Candida albicans [21] it was 16 µg/mL (≈ 36.6 µM); in the data set with Cryptococcus neoformans it was no more than 0.125 µg/mL. Also, the MIC is 0.016 µg/mL in the data set with Saccharomyces cerevisiae [6]; 0.016 µg/mL in the data set with Saccharomyces cerevisiae [7]; 32 µg/mL in the data set with Saccharomyces cerevisiae [8]; 1 µg/mL (≈ 2.29 µM) in data set [Candida] auris [22]; 0.031 µg/mL with Saccharomyces cerevisiae [9]; no more than 0.125 µg/mL in the data set with Pichia kudriavzevii. For the same compound, the MIC in the data set with Saccharomyces cerevisiae [10] was 0.063 µg/mL; in the data set on Aspergillus fumigatus it was 0.25 µg/mL (≈ 0.571 µM); in the data set on Saccharomyces cerevisiae [11], 0.063 µg/mL; in the data set on Saccharomyces cerevisiae [12] it was 0.063 µg/mL; in the data set on Candida parapsilosis, no more than 0.125 µg/mL; with Candida tropicalis it was 4 µg/mL (≈ 9.14 µM).
For `CC(=O)N1CCN(c2ccc(OCC3COC(Cn4ccnc4)(c4ccc(Cl)cc4Cl)O3)cc2)CC1` (stereo not drawn) [KETOCONAZOLE], the MIC in the data set with Saccharomyces cerevisiae [1] stood at 0.5 µg/mL; in the data set on Saccharomyces cerevisiae [3], 0.5 µg/mL; in the data set on Saccharomyces cerevisiae [4], 1 µg/mL; in the data set with Saccharomyces cerevisiae [5], 1 µg/mL; in the data set on Saccharomyces cerevisiae [6], 1 µg/mL; in the data set on Saccharomyces cerevisiae [7] it was 0.5 µg/mL. Further, the MIC was greater than 64 µg/mL in the data set on Saccharomyces cerevisiae [8]; 2 µg/mL with Saccharomyces cerevisiae [9]; 2 µg/mL in the data set with Saccharomyces cerevisiae [10]; 1 µg/mL with Saccharomyces cerevisiae [11]; 2 µg/mL with Saccharomyces cerevisiae [12].
On to `CC[C@@H]([C@H](C)O)n1ncn(-c2ccc(N3CCN(c4ccc(OC[C@@H]5CO[C@@](Cn6cncn6)(c6ccc(F)cc6F)C5)cc4)CC3)cc2)c1=O` [POSACONAZOLE], for which the MIC in the data set with Saccharomyces cerevisiae [1] is 1 µg/mL; in the data set with Saccharomyces cerevisiae [3], 0.5 µg/mL; with Saccharomyces cerevisiae [4], 1 µg/mL; in the data set with Saccharomyces cerevisiae [5], 2 µg/mL; in the data set with Saccharomyces cerevisiae [6] it was 1 µg/mL; with Saccharomyces cerevisiae [7], 2 µg/mL. Also, the MIC in the data set on Saccharomyces cerevisiae [8] came to 16 µg/mL; in the data set with Saccharomyces cerevisiae [9] it was 1 µg/mL; with Saccharomyces cerevisiae [10], 2 µg/mL; in the data set on Saccharomyces cerevisiae [11], 1 µg/mL; in the data set with Saccharomyces cerevisiae [12], 2 µg/mL.
For the compound `C[C@@H](OCC#Cc1ccc(Cl)cc1)[C@](O)(Cn1cncn1)c1ccc(F)cc1F`, the MIC was 8 µg/mL (≈ 19.1 µM) in data set [Candida] auris [15]; 16 µg/mL (≈ 38.3 µM) in the data set on Candida albicans [16]; 32 µg/mL (≈ 76.6 µM) in the data set on Candida albicans [17]; no more than 0.125 µg/mL in the data set with Nakaseomyces glabratus [18]; no more than 0.125 µg/mL with Candida albicans [19]; 16 µg/mL (≈ 38.3 µM) in [Candida] auris [20]. The MIC was determined as 32 µg/mL (≈ 76.6 µM) in the data set on Candida albicans [21]; 1 µg/mL (≈ 2.39 µM) in the data set on Cryptococcus neoformans; 4 µg/mL (≈ 9.57 µM) in data set [Candida] auris [22]; 16 µg/mL (≈ 38.3 µM) with Pichia kudriavzevii; 4 µg/mL (≈ 9.57 µM) in the data set with Aspergillus fumigatus; 0.5 µg/mL (≈ 1.2 µM) with Candida parapsilosis. Also, in the data set with Candida tropicalis, the MIC was no more than 0.125 µg/mL. Further, the Ratio entry in the data set on Nakaseomyces glabratus [23] is “>=8”.
In the case of `C[C@@H](OCC#Cc1ccc(F)cc1)[C@](O)(Cn1cncn1)c1ccc(F)cc1F`, the MIC was 16 µg/mL (≈ 39.9 µM) in [Candida] auris [15]; 8 µg/mL (≈ 19.9 µM) with Candida albicans [16]; 64 µg/mL (≈ 159 µM) in the data set with Candida albicans [17]; no more than 0.125 µg/mL in the data set on Nakaseomyces glabratus [18]; no more than 0.125 µg/mL in the data set on Candida albicans [19]; 16 µg/mL (≈ 39.9 µM) in data set [Candida] auris [20]. For the same compound, the MIC in the data set on Candida albicans [21] came to 32 µg/mL (≈ 79.7 µM); in the data set on Cryptococcus neoformans, 0.5 µg/mL (≈ 1.25 µM); in data set [Candida] auris [22], 16 µg/mL (≈ 39.9 µM); with Pichia kudriavzevii it was 8 µg/mL (≈ 19.9 µM); with Aspergillus fumigatus, 1 µg/mL (≈ 2.49 µM); in the data set with Candida parapsilosis it was 1 µg/mL (≈ 2.49 µM). In the data set on Candida tropicalis, the MIC amounted to 64 µg/mL (≈ 159 µM). Also, the Ratio entry with Nakaseomyces glabratus [23] is “>=8”.

Source of the values: ChEMBL document CHEMBL5620353, “Novel antifungal triazoles with alkynyl-methoxyl side chains: Design, synthesis, and biological activity evaluation” (Eur J Med Chem, 2023).
